| Structure (SMILES) | melting point [°C] |
| --- | --- |
| CCCC(=O)Nc1ccn(C2OC(CO)C(O)C2O)c(=O)n1 (stereo not given) | 108 to 110 |
| Cc1nc2c(O)cccn2c(=O)c1CCO | 150 |
| O=c1n(-c2cc(O)c([N+](=O)[O-])cc2F)nc2ccc(Cl)cn12 | 207 to 209 |
| CCS(=O)(=O)N[C@H]1CC[C@H](CCN2CCC(c3cccc4c3CCO4)CC2)CC1 | 131 |
| CCOC(=O)OC12Oc3cc(C(C)C)ccc3C1(OC(=O)OCC)C(=O)c1ccccc12 (stereo not given) | 150 to 153 |
| NC(=O)c1cccc(-c2noc(-c3ccccc3F)n2)c1 | 231 to 234 |
| CC(=O)c1nn(CCOS(C)(=O)=O)cc1C | 108 to 109 |
| c1ccc(Cn2cc3c(c2)OCCO3)cc1 | 69 to 70 |
| Cn1c(=O)c2c(nc3n(Cc4ccccc4)c(=O)cc(O)n23)n(C)c1=O | 206 to 209 |
| Cc1cccc(C)c1NC(=O)c1ccc(O)cc1 | 232 to 234 |
| CCCCCCCCCCCCc1ccc(S(=O)(=O)Cl)cc1 | 33 to 35 |
| O=Cc1ccc(OCCCC(=O)O)c(Cl)c1 | 128 to 131 |
| COc1ccc(-c2cc3c(n2CCN(C)C)CCCC3)cc1 | 81 to 82 |
| O=c1cc(-c2cc[nH]n2)oc2ccc(Cl)cc12 | 217 to 219 |
| O=C(CCCN1CCCCC1)c1ccc2c(c1)Cc1cc(C(=O)CCCN3CCCCC3)ccc1-2 | 157 to 159 |
| Cc1nnc(SCCCC(=O)NC/C=C\COc2cc(CN3CCCCC3)ccn2)s1 | 65 to 68 |
| CCCCCCCCCCCCCCCCCCOCCOCCOC(=O)NCc1ccccn1 | 61 to 62 |
| CN(C)Cc1cc2c(s1)Oc1ccccc1N=C2N1CCN(C)CC1 | 188 to 189 |
| O=C1N=C(N2CCOCC2)SC1=Cc1cc(-c2ccc(O)c(C34CC5CC(CC(C5)C3)C4)c2)ccc1O | 325 to 330 |
| N#CCCNC(=O)c1n[nH]cc1NC(=O)C1CCCC1 | 180 to 181 |

| Structure (SMILES) | melting point [°C] |
| --- | --- |
| COC(=O)c1ccc(O)cc1[N+](=O)[O-] | 161 to 166 |
| CCC(=O)Nc1c(C)c2c(c(Cc3ccc(C(C)C)cc3)c1C)OCC2 | 177 to 178 |
| Cc1nc2c3c(c(C(N)=O)cc2n1C)CCC1(Cc2ccccc2C1)N3 | 272 to 273 |
| C[C@@H](O)[C@H]1CC[C@H]2[C@@H]3CC=C4CC(=O)CC[C@]4(C)[C@H]3CC[C@]12C | 171 to 175 |
| CS(=O)(=O)OCCC(CCOS(C)(=O)=O)C(F)(F)F | 40 to 45 |
| COc1cccc(-c2nc(N)c(C(N)=O)nc2-c2ccc(=O)n(C(C)C)c2)c1 | 192 |
| COC(=O)C(C)(C)Oc1ccc(C(=O)CN2CCN(c3ccncc3)CC2)cc1 | 88 to 90 |
| COc1ccc2[nH]cc(C3=CCC4(CC3)OCCO4)c2c1 | 161 to 162 |
| Cc1nnccc1-c1c(-c2ccccc2)nn2ccccc12 | 209 to 214 |
| Cc1cc(CC(=O)N[C@H]2CC[C@H](CCN3CCC(c4cccc5c4CCO5)CC3)CC2)on1 | 188 |
| Nc1nc(OC(F)F)cc(OC(F)F)n1 | 67 to 69 |
| COc1ccc(CCNCCc2ccc(OC)c(OC)c2)cc1OC | 56 to 58 |
| CCOC(=O)c1cnoc1-c1ccc(F)c(Br)c1 | 111 to 112 |
| Cc1nc2[nH]c(=O)[nH]c2cc1-c1ccc(N)cc1 | 277 to 283 |
| O=P(O)(O)CCCCCCCCCCCO | 109 to 112 |
| N#Cc1ccc2nc3c(c(=O)n2c1)CSC3 | 256 to 257 |
| CCOC(=O)c1cccc(C(=O)CC)c1OCCN(CC)CC | 103 to 105 |
| Cc1cc(-c2ccccc2)n2nc(S(C)(=O)=O)nc2n1 | 158 to 159 |
| CCCCc1nc(SC)c(C(=O)O)n1Cc1ccc(-c2ccccc2S(=O)(=O)NC(=O)NCCC)cc1 | 109 to 111 |
| CC1=CC(OC(=O)c2ccc([N+](=O)[O-])cc2)C(O)C(C)(C)CC1=O (stereo not given) | 151 to 152 |

More lines, now with the values ahead:

| melting point [°C] | Structure (SMILES) |
| --- | --- |
| 275 to 280 | CCCCOc1cc2c3c(ccc4c5ccc6c7c(cc(OCCCC)c(c1c34)c75)-c1ccccc1C6=O)C(=O)c1ccccc1-2 |
| 90 to 93 | O=c1c2cccc3c2n(c(=O)n1CCO)-c1cc(C(F)(F)F)ccc1S3 |
| 192 to 194 | CCCCc1ncc(/C=C(\Cc2cccs2)C(=O)O)n1Cc1ccc(OCC(=O)O)cc1 |
| 100 to 101 | CCc1cc(Oc2ccc([C@@H]3OC(=O)N[C@@H]3Cc3cccc(OC(F)(F)C(F)F)c3)cc2)ccc1Cl (racemic) |
| 180 to 182 | Cc1c(=O)n(Cc2ccccc2)c(=O)n2cc(C(=O)NCc3ccc(Cl)c(Cl)c3)sc12 |
| 59 to 60 | CCCCCCCCCCCCOc1ccc(C(=O)c2ccc(Sc3ccccc3)cc2)c(O)c1 |
| 112 to 116 | O=c1c2c(Cl)cc(Cl)cc2n(Cc2ccccc2)c(=O)n1Cc1cccc(F)c1 |
| 82.1 to 83.6 | O=C1c2ccccc2C(=O)N1Cc1ccc(OC(F)(F)F)cc1 |
| 100 to 101 | CC(=O)c1ccc(-c2ccc(Cl)cc2)cc1 |
| 89.6 to 93 | CS(=O)(=O)N1CCC[C@@H]1[C@H](CS(=O)(=O)c1ccc(Oc2ccc(OC(F)(F)F)cc2)cc1)N(O)C=O |
| 195 to 197 | COc1ccc2c(c1)C(=O)c1ccccc1C2=O |
| 90 to 90.5 | COC(=O)c1ccc(C(=O)C=C(c2cc(Cl)cc(C(F)(F)F)c2)C(F)(F)F)c2ccccc12 |
| 78 to 81 | CCc1c(-c2ccc(OCc3ccccc3)cc2)c2ccc3c(OC)ccc1n32 |
| 142 to 145 | CC(=O)SCC(CCCc1ccccc1)C(=O)Nc1cccc(C(=O)O)c1 (stereo not given) |
| 163 to 165 | Cc1noc(-c2cn(-c3cccc(-c4ccccc4)c3)cn2)n1 |
| 126 to 128 | CS(=O)(=O)Nc1cc(NC(=O)CCl)ccc1Oc1ccccc1 |
| 137 to 138 | CC(CCCCCCNC(=O)c1ccc(OC(F)(F)F)cc1)NC(=O)c1ccc(OC(F)(F)F)cc1 (stereo not given) |
| 99 to 101 | Oc1cnccc1CCCOc1cccnc1Oc1cc(Cl)cc(Cl)c1 |
| 133 to 134 | O=C(Nc1cccc(-n2nc(C(F)(F)F)cc2C(F)(F)F)c1)c1ccc(F)cc1F |
| 228 to 230 | O=C(O)C1(c2ccc(Cl)cc2)OCC(c2ccc(F)cc2)(c2ccc(F)cc2)CO1 |
| 202 | CCOC(=O)C1=C(COCCCc2nc3ccccc3n2C)NC(C)=C(C(=O)NC(C)(C)C)C1c1ccccc1Cl (stereo not given) |
| 111 to 112 | O=C(c1ccc2ccccc2c1)N1CC[C@H](NCc2ccnc3ccccc23)C[C@H]1Cc1ccccc1 (relative stereo) |
| 126 to 129 | CC(N1CCC(Cc2ccccc2)CC1)C(O)(NC(=O)c1ccccc1)c1ccc(N)cc1 (stereo not given) |
| 262 to 265 | CCc1ccc(Nc2ncc(Cc3ccc(O)nc3)c3ncccc23)cc1Br |
| 204 to 206 | COc1c(O)ccc2cc(-c3ccc(O)cc3)ccc12 |
| 152 to 155 | CC(C)c1nc(COCc2ccccc2)n(Cc2ccccc2)c1Sc1cccc([N+](=O)[O-])c1 |
| 127 to 128 | CC(=O)NCc1ccc(/C=C/C(c2cc(Cl)cc(Cl)c2)C(F)(F)F)cc1Cl (stereo not given) |
| 188 to 192 | O=C(NC(=O)c1c(Cl)cccc1Cl)Nc1cncc(C(F)(F)F)n1 |
| 192 to 193 | COc1cc2c(cc1OCc1ccccc1)CCCNC2=O |
| 227 to 229 | NC(=O)NN=C1CCCCC1n1nc(-c2c(-c3ccccc3)nn3ccccc23)ccc1=O (stereo not given) |

Source: a melting point compilation (Tetko et al.; mined from patent text by program, amines drawn as free bases though some values may be those of a salt)
